Tests used:
[1] = test system: human normal prostate epithelial cells (PrECs); assay: XTT cell viability, normal prostate epithelial cells; assay type: cell-based; conditions: 72 h
Procedure: (§1) FIG. 22. DRAs have no effect on cell viability in human normal prostate epithelial cells (PrECs). PrECs were treated with DRA11, DRA9 and DRA9S for 72 h. At the end of incubation period, cell viability was measured by XTT assay. Data represent the mean±S.D. Control refers to group treated with DMSO (0.01%).
FIGS. 60 A, B & C. DRAs has no effect on cell viability of human normal mammary, prostate and lung epithelial cells. Human normal mammary (FIG. 60A), prostate (FIG. 60B) and lung (FIG. 60C) epithelial cells were treated with DRA11 (0-25 μM) for 72 h, and cell viability was measured by XTT assay.
XTT Assay. Cells (1×10^4 cells per well) were seeded in 96-well plates (flat bottom), and treated with death receptor agonists/activators/small molecules in the presence or absence of TNF-related apoptosis inducing ligand (TRAIL). Plates were incubated for various time points at 37° C. and 5% CO2. […] The spectrophotometric absorbance of the sample was measured using a microtitre plate (ELISA) reader. The wavelength to measure absorbance of the formazan product was 450 nm, and the reference wavelength was 650 nm.
PrECs were treated with DRA11, DRA9 and DRA9S for 72 h. At the end of incubation period, cell viability was measured by XTT assay. […]

normal human hepatocytes = assay: XTT cell viability, normal hepatocytes; assay type: cell-based; conditions: 0, 1, 3, 5 and 10 μM, 72 h
Procedure: FIGS. 59 A, B & C. DRAs has no effect on cell viability of normal human hepatocytes. Normal human hepatocytes were incubated with various concentrations of DRA11 (0, 1, 3, 5 and 10 μM) (FIG. 59A), DRA9S (0, 1, 3, 5 and 10 μM) (FIG. 59B), and DRA9 (0, 1, 3, 5 and 10 μM) (FIG. 59C) for 72 h. At the end of incubation period, cell viability was measured by XTT assay.
(§2) XTT Assay. Cells (1×10^4 cells per well) were seeded in 96-well plates (flat bottom), and treated with death receptor agonists/activators/small molecules in the presence or absence of TNF-related apoptosis inducing ligand (TRAIL). Plates were incubated for various time points at 37° C. and 5% CO2. Before the end of the experiment, 50 μl XTT (sodium 3′[1-(phenylaminocarbonyl)-3,4-tetrazolium]-bis(4-methoxy-6-nitro) benzene sulfonic acid hydrate) labeling mixture (final concentration, 125 μM sodium XTT and 25 μM PMS) per well was added and plates were incubated for a further 4 h at 37° C. and 5% CO2. The spectrophotometric absorbance of the sample was measured using a microtitre plate (ELISA) reader. The wavelength to measure absorbance of the formazan product was 450 nm, and the reference wavelength was 650 nm.

[2] = test system: human bronchial epithelial cells (Beas2B); assay: XTT cell viability, bronchial epithelial cells; assay type: cell-based; conditions: 72 h
Procedure: as §1, with “23.” for “22.”, “bronchial” for “normal prostate”, “(Beas2B). Beas2B cells” for “(PrECs). PrECs”
as §2
Beas2B cells were treated with DRA11, DRA9 and DRA9S for 72 h. At the end of incubation period, cell viability was measured by XTT assay. See, for example, FIG. 23. Data represent the mean ±S.D. Control refers to group treated with DMSO (0.01%).

[3] = test system: mesothelioma REN cell line; assay: XTT cell viability, mesothelioma REN; assay type: cell-based; conditions: then DRA 72 h; for effect of NFκB inhibitor MG132 on the inhibitory effect on cell viability: MG132 2.5 μM 4 h
Procedure: FIG. 45. […] Mesothelioma REN cells were treated with NFκB inhibitor MG132 (2.5 μM) for 4 h followed by treatment with various concentrations of DRA11, DRA9, and DRA9S for 72 h. At the end of incubation, cell viability was measured by XTT assay. Data represent the mean±S.D.
FIG. 55. […] REN cells were pretreated with either control peptide (10 μM) or pan caspase inhibitor (z-VAD-fink, 25 μM) for 2 h, followed by treatment with various doses of DRA11, DRA9 and DRA9S for 72 h. At the end of incubation, cell viability was measured by XTT assay. Data represent the mean±S.D.
as §2

AsPC-1 cells = assay: XTT cell viability with caspase inhibitor pretreatment, AsPC-1; assay type: cell-based, human; conditions: then DRA 72 h; for effect of caspase-3 inhibitor (z-DEVD-fmk) on the DRA effect on cell viability: Z-DEVD-fmk 25 μM 2 h pretreatment; for effect of caspase-8 inhibitor (Ac-IETD-CHO) on the DRA effect on cell viability: caspase-8 inhibitor 25 μM 2 h pretreatment; for effect of pan caspase inhibitor (z-VAD-fmk) on the DRA effect on cell viability: inhibitor 25 μM 2 h pretreatment
Procedure: (§3) FIG. 5. […] AsPC-1 cells were pretreated with either control peptide (25 μM) or caspase-3 inhibitor (Z-DEVD-fmk, 25 μM) for 2 h, followed by treatment with various doses of DRA11, DRA9 and DRA9S for 72 h. At the end of incubation, cell viability was measured by XTT assay. Data represent the mean±S.D. Control refers to a group treated with DMSO (0.01%).
as §3, with “6.” for “5.”, “caspase-8” for “caspase-3”, “(25” for “(Z-DEVD-fmk, 25”
as §3, with “7.” for “5.”, “caspase-8” for “caspase-3”, “(25” for “(Z-DEVD-fmk, 25”
as §2
(§4) AsPC-1 cells were pretreated with either control peptide (25 μM) or caspase-3 inhibitor (Z-DEVD-fink, 25 μM) for 2 h, followed by treatment with various doses of DRA11, DRA9 and DRA9S for 72 h. At the end of incubation, cell viability was measured by XTT assay. See, for example, FIG. 5. Data represent the mean±S.D. Control refers to a group treated with DMSO (0.01%).
as §4, with “caspase-8” for “caspase-3”, “(25” for “(Z-DEVD-fink, 25”, “6.” for “5.”
as §4, with “caspase-8” for “caspase-3”, “(25” for “(Z-DEVD-fink, 25”, “7.” for “5.”

Row | SMILES | effect on cell viability in PrECs [1] | effect on cell viability of normal human hepatocytes (normal human hepatocytes) | effect on cell viability in Beas2B cells [2] | effect of NFκB inhibitor MG132 on the inhibitory effect on cell viability [3] | effect of pan caspase inhibitor (z-VAD-fmk) on the inhibitory effect on cell viability ([3]; z-VAD-fmk 25 μM 2 h pretreatment) | effect of caspase-3 inhibitor (z-DEVD-fmk) on the DRA effect on cell viability (AsPC-1 cells) | effect of caspase-8 inhibitor (Ac-IETD-CHO) on the DRA effect on cell viability (AsPC-1 cells) | effect of pan caspase inhibitor (z-VAD-fmk) on the DRA effect on cell viability (AsPC-1 cells)
1 | CCOc1cc(Br)c(Br)c(/C=N/c2cccc(C(=O)O)c2)c1O [DRA9] | no effect | no effect | no effect | enhances the inhibitory effects | blocks the inhibitory effects | blocks the effects | blocks the effects | blocks effects
2 | CCOc1cc(Br)c(Br)c(/C=N/c2cccc(C(=O)O)c2C)c1O [DRA9S] | no effect | no effect | no effect | enhances the inhibitory effects | – | blocks the effects | blocks the effects | blocks effects

From patent publication US7915245B2, “Methods and compositions of trail-death receptor agonists/activators” (The Board of Regents of the University of Texas System, priority 2007, dated 2011)
